The text below walks through data of ChEMBL document CHEMBL1201862, “PubChem BioAssay data set” (2004).

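A five-concentration, 48-hour dose response in 96-well plates underlies each endpoint, interpolated linearly between surrounding concentrations. GI50: concentration for 50% inhibition of growth.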 Active and inactive are the calls of the source. No stated cut-off is given here; in the data, active = GI50 up to about 1.1 µM and inactive = higher.

Common to all, as to assay: NCI anticancer screen, dose series, 48 h
Assay [1] has as its system BT-549.
Assay [2] concerns DU-145.
Assay [3] has as its system HCT-15.
The subject of assay [4] is HOP-62.
Assay [5] deals with HOP-92.
The test system of assay [6] is Hs-578T.
In assay [7] the test system is IGROV-1.
Assay [8] concerns Malme-3M.
Assay [9] has as its system NCI-H23.
Assay [10] deals with NCI-H522.
Assay [11] deals with OVCAR-3.
Assay [12] concerns RPMI-8226.
Assay [13] has as its system RXF 393.
Assay [14] relates to SF-295.
For assay [15], the system named is SF-539.
For assay [16], the system named is SK-MEL-28.
The subject of assay [17] is SK-MEL-5.
Assay [18] has as its system SNB-75.
Assay [19] has as its system T47D.
Assay [20] has as its system TK-10.

For the molecule `CC(C)CNC(=O)O`, the GI50 in assay [1] was > 100 µM (inactive); in [2], > 100 µM (inactive); in assay [3] it was > 100 µM; in assay [4] it was > 100 µM (inactive); in assay [5], > 100 µM (inactive); in [6], > 100 µM (inactive). Also, the GI50 in [7], in assay [8], in [9], in assay [10], in assay [11] and in [12] was > 100 µM (inactive) each time. Besides, the GI50 in [13], in [14], in assay [15], in assay [16], in [17] and in assay [18] was > 100 µM (inactive) each time. Further, the GI50 in assay [19] and in assay [20] was > 100 µM (inactive) in each case.
On to `Oc1ccc2ccccc2c1/C=C/c1ccc2c(Br)cc(Br)c(O)c2n1`, for which the GI50 is 12.3 µM (inactive) in assay [1]; 12 µM (inactive) in assay [2]; 0.787 µM in assay [3]; 8.17 µM (inactive) in assay [4]; 11.5 µM (inactive) in [5]; 12.6 µM (inactive) in [6]. Also, the GI50 was 2.17 µM (inactive) in assay [7]; 12.7 µM (inactive) in [8]; 5.96 µM (inactive) in assay [9]; 3.56 µM (inactive) in assay [10]; 2.49 µM (inactive) in [11]; 4.06 µM (inactive) in assay [12]. For the same molecule, the GI50 in [13] was 8.61 µM (inactive); in assay [14], 4.32 µM (inactive); in assay [15], 2.53 µM (inactive); in [16], 12.8 µM (inactive); in [17] it was 3.36 µM (inactive); in assay [18] it was 15.2 µM (inactive). Also, the GI50 was 11.6 µM (inactive) in assay [19] and 11 µM (inactive) in assay [20].
For `CCN(CC)c1ccc(/C=C2\CCc3ccc([N+](=O)[O-])cc3C2=O)cc1`, the GI50 is > 100 µM (inactive) in [1]; 6.01 µM (inactive) in assay [2]; 0.64 µM in [3]; 0.471 µM (active) in [4]; > 100 µM (inactive) in assay [5]; 1.26 µM (inactive) in assay [6]. Also, the GI50 in [7] was 7.06 µM (inactive); in assay [8] it was 2.52 µM (inactive); in [9] it was 7.62 µM (inactive); in assay [10], 0.912 µM (active); in [11] it was 1.93 µM (inactive); in assay [12], 0.391 µM (active). Further, the GI50 in assay [13] was 2.99 µM (inactive); in assay [14], 1.4 µM (inactive); in assay [15], 2.25 µM (inactive); in [16], 3.46 µM (inactive); in assay [17], 1.71 µM (inactive); in assay [18] it was 2.52 µM (inactive). For the same molecule, the GI50 was 4.55 µM (inactive) in [19] and 2.86 µM (inactive) in assay [20].
For the molecule `CC(=O)NC1C(OCc2ccccc2)OC(CO)C(O)C1OC(C)C(=O)NC(C)C(=O)NC(CCC(=O)NCCCNc1c2ccccc2nc2cccc([N+](=O)[O-])c12)C(N)=O` (stereo not given), the GI50 is 2.74 µM (inactive) in assay [1]; 1.56 µM (inactive) in assay [2]; 1.67 µM in assay [3]; 1.91 µM (inactive) in assay [4]; 1.99 µM (inactive) in assay [5]; 6.78 µM (inactive) in [6]. For the same molecule, the GI50 in assay [7] was 19.1 µM (inactive); in assay [8], 2.21 µM (inactive); in assay [9] it was 2.55 µM (inactive); in [10], 1.48 µM (inactive); in assay [11], 2.34 µM (inactive); in assay [12], 0.59 µM (active). Also, the GI50 in assay [13] was 1.31 µM (inactive); in [14] it was 3.26 µM (inactive); in assay [15], 3.86 µM (inactive); in [16], 2.58 µM (inactive); in assay [17], 1.01 µM (active); in [18] it was 1.99 µM (inactive). In addition, the GI50 is 16.8 µM (inactive) in assay [19] and 2.94 µM (inactive) in assay [20].
For the molecule `c1ccc(C(C2=Nc3cccc4cccc(c34)N2)c2ccccc2)cc1`, the GI50 in [1] was 22 µM (inactive); in [2], 32.2 µM (inactive); in assay [3] it was 25.1 µM; in assay [4] it was 23.1 µM (inactive); in assay [5], 18.7 µM (inactive); in assay [6], 27 µM (inactive). The GI50 in [7] was 33.9 µM (inactive); in assay [8], 27.8 µM (inactive); in assay [9], 28.1 µM (inactive); in assay [10], 16.6 µM (inactive); in assay [11] it was 20.3 µM (inactive); in [12], 21.6 µM (inactive). For the same molecule, the GI50 in [13] was 27.3 µM (inactive); in [14], 21.1 µM (inactive); in assay [15], 17.2 µM (inactive); in assay [16], 23.6 µM (inactive); in assay [17] it was 20.5 µM (inactive); in assay [18], 22.3 µM (inactive). The GI50 is 13.3 µM (inactive) in [19] and 47.9 µM (inactive) in [20].
Take `O=C(/C=C/c1ccc(Cl)cc1)c1ccc(Cl)s1`: the GI50 in [1] is 27 µM (inactive); in assay [2] it was > 100 µM (inactive); in assay [3] it was 60.3 µM; in [4], > 100 µM (inactive); in assay [5] it was 82.4 µM (inactive); in [6], 40.5 µM (inactive). The GI50 in assay [7] was 49.2 µM (inactive); in assay [8] it was > 100 µM (inactive); in [9] it was 38.9 µM (inactive); in assay [10], 64.1 µM (inactive); in assay [11] it was 58.7 µM (inactive); in assay [12] it was 17.8 µM (inactive). Further, the GI50 is 23.2 µM (inactive) in [13]; 78.3 µM (inactive) in [14]; 36.5 µM (inactive) in assay [15]; 50.1 µM (inactive) in assay [16]; > 10 µM (inactive) in [17]; 39 µM (inactive) in assay [18]. Further, the figures for the GI50 in assay [19] and in assay [20] were 46 µM (inactive) and 85.3 µM (inactive), respectively.
